Test results as given in PubChem BioAssay AID2423 (Broad Institute, 2010).
Values joined by “and” are separate entries in the source; they are usually repeats but may differ in a detail not shown here. Equal entries are not always repeated. Records with an inconclusive call do not appear. Active and inactive are the calls of the source. The rule behind the calls is not given here.

Test system: C. albicans CaCi-8 + fluconazole, Alamar Blue growth, 48 h
Assay: resistant C. albicans growth inhibition with fluconazole, dose response, CaCi-8 strain, Alamar Blue fluorescence (AID 2423)

O=Nc1c(O)n(Cc2cccc(Cl)c2)c2ccccc12
EC50: 1200 nM

CS(=O)(=O)NN1C(=O)c2ccccc2NC1c1cccc2cccnc12 (configuration not stated)
EC50: 2130 nM

CCNC(=S)NNC(=O)c1cc(-c2ccc(OC)cc2)nc2ccccc12
EC50: 4380 nM

O=C(/C=C1\NC2(CCCC2)Cc2ccccc21)C(=O)N/N=C/c1ccccc1O
EC50: 601 nM

COc1ccc(C2Nc3ccccc3C(=O)N2O)cc1OC (configuration not stated)
EC50: > 15000 nM (inactive)

CC(=O)c1sc(NC(=O)CCS(=O)(=O)c2ccccc2)nc1C
EC50: 368 nM

CCOC(=O)c1cc2c(=O)n3ccccc3nc2n(CCOC)c1=NC(=O)c1ccncc1
EC50: > 15000 nM (inactive)

O=C(c1ccc(C(=O)N2CCCc3ccccc32)s1)N1CCCc2ccccc21
EC50: 2990 nM

Brc1ccc(/C=C/C=N/Nc2nc3ccccc3s2)cc1
EC50: > 16000 nM (inactive)

Cc1nc2ccccc2cc1OCc1ccc(F)cc1
EC50: 909 nM

Cc1ccc(C(=O)N/N=C/c2c(O)ccc3ccccc23)cn1
EC50: 947 nM

CCOC(=O)CSc1ccc(C(=O)N2CCN(C)CC2)cc1[N+](=O)[O-]
EC50: > 16000 nM (inactive)

CCOC(=O)c1ccc(Oc2nc(NC(C)(C)C)nc(N(C)C)n2)cc1
EC50: 13300 nM

CN1CCc2cc3c(c4c2[C@H]1[C@H](O)c1ccccc1-4)OCO3
EC50: 8200 nM

c1ccc2c(c1)CCN(c1ncnc3c1[nH]c1ccccc13)C2
EC50: 558 nM

CCOC(=O)C1CCCN(c2cc(C)nc3cc(-c4ccc(F)cc4)nn23)C1 (configuration not stated)
EC50: > 16000 nM (inactive)

O=C1CC(c2ccccc2)CC(=NCCO)/C1=C(\O)CCCN1C(=O)c2ccccc2C1=O (configuration not stated)
EC50: > 15000 nM (inactive)

O=C(Oc1c(Cl)cc(Cl)c2cccnc12)c1ccco1
EC50: 465 nM

COc1cc(/C=C(\C#N)c2nc3ccccc3[nH]2)ccc1O
EC50: 1490 nM

CCc1ccc(CNC(=O)CCC(=O)N2Cc3cccc(OC)c3Oc3ncccc32)cc1
EC50: > 16000 nM (inactive)

Cc1cc(SCC(=O)N/N=C/c2ccc(O)cc2O)c(C)cc1Br
EC50: 5010 nM

O=C(N/N=C(\c1ccccc1)c1ccccn1)c1cccc([N+](=O)[O-])c1
EC50: 5310 nM

O=[N+]([O-])c1ccc(S(=O)(=O)Nc2nc3ccccc3nc2Nc2ccccc2)cc1
EC50: 1440 nM

Cc1cccc(N=Nc2c(C)[nH]n(C(N)=S)c2=O)c1C
EC50: 944 nM

O=C1C2CCN(CC2)C1Cc1ccc(OCCOc2ccccc2)cc1 (configuration not stated)
EC50: 1680 nM

COc1cccc(C2/C(=C(/O)c3ccc(C)cc3)C(=O)C(=O)N2Cc2ccco2)c1 (configuration not stated)
EC50: 7030 nM

COc1cc(OC)cc(C(=O)NNC(=O)Cc2ccc(OC)c(S(=O)(=O)N3CCOCC3)c2)c1
EC50: > 15000 nM (inactive)

Cn1c(SCC(=O)N2CCCc3ccccc32)nnc1-c1ccccc1
EC50: > 16000 nM (inactive)

C/C(=N\O)c1cc(Cl)cc(Cl)c1O
EC50: 3660 nM

Cc1cccc(C(=O)NNC2=C(C(=O)C(F)(F)F)CCC2)c1O
EC50: 1230 nM

CC[C@@H]1C=CC=CC[C@H](C)[C@@H](O)[C@@H](C)C(=O)[C@H](C)[C@@H](O)[C@H](C)C(=O)[C@H](C)[C@@H](O)[C@H](C)C=CC(=O)O[C@H]2[C@@H](C)[C@@H](CC1)O[C@@]1(CC[C@@H](C)[C@@H](C[C@H](C)O)O1)[C@@H]2C
EC50: 654 nM

CCCC(=O)NC(c1ccc(Cl)cc1)c1ccc2cccnc2c1O (configuration not stated)
EC50: 543 nM

CCC(C)c1ccc(O)c(NC(=S)NC(=O)c2cccnc2)c1 (configuration not stated)
EC50: 878 nM

Cc1ncc(CO)c(/C=N/NC(=S)Nc2ccc(Cl)c(Cl)c2)c1O
EC50: 1880 nM

COc1ccc(CCNC(=O)c2c(O)c3ccccc3n(C)c2=O)cc1
EC50: > 15000 nM (inactive)

O=c1oc2ccccc2c(O)c1Cc1cc(Cl)c2cccnc2c1O
EC50: 2740 nM

Cc1cc(Sc2ncnc(N)c2[N+](=O)[O-])ncn1
EC50: 659 nM

O=C(CCl)N1c2ccccc2CCc2ccccc21
EC50: 1010 nM

[O-][N+]1=c2ccc(Nc3ccccc3)cc2=NC12CCCCC2
EC50: 750 nM

CCCC(=O)NC(c1ccc(OC)cc1)c1ccc2cccnc2c1O (configuration not stated)
EC50: 893 nM

CN(C/C=C/C#CC(C)(C)C)Cc1cccc2ccccc12
EC50: 2590 nM

CN(C)S(=O)(=O)Oc1cccc(C(=O)Nc2cccc(Cl)c2)c1
EC50: 1350 nM

CCOc1ccc(N=Nc2ccc(O)c3ncccc23)cc1
EC50: 1150 nM

NC(=O)c1ccc(Nc2nnc(-c3ccc(O)cc3)c3ccccc23)cc1
EC50: 7930 nM

C(=C\c1ccccc1)/C=N/Nc1nc(N2CCCCC2)nc(N2CCCCC2)n1
EC50: > 15000 nM (inactive)

CCOc1ccc(-n2c(O)c(/C=N/Nc3nc(C)cc(C)n3)c3ccccc3c2=O)cc1
EC50: > 15000 nM (inactive)

O=C(Oc1c(CN2CCOCC2)cc(Cl)c2cccnc12)c1cccs1
EC50: 3400 nM

CCOc1cc(-c2nc(-c3cc(OC)c(OC)c(OC)c3)no2)cc(OCC)c1OCC
EC50: > 16000 nM (inactive)

CC(C)CC(=O)NC(=S)NNC(=O)c1ccc(NC(=O)C2CCCCC2)cc1
EC50: 1210 nM

CCc1nnc(NC(=O)CSc2ncc(-c3ccccc3)n2C)s1
EC50: 1640 nM

c1cnc2c(c1)ccc1cccnc12
EC50: 10500 nM and 9350 nM

Fc1cccc(-n2cc(-c3ccccc3)c3c(=S)nc[nH]c32)c1
EC50: 1800 nM

Cc1ccc(-n2c(O)c(C=Nc3ccccc3-c3n[nH]c(=S)[nH]c3=O)c3ccccc3c2=O)cc1C
EC50: 496 nM

COc1ccc(C(=O)NC(=S)NNC(=O)c2ccccc2C)cc1
EC50: 1990 nM

O=c1cc(-c2ccccc2)c2ccc(O)cc2o1
EC50: 3530 nM

Cc1cccc(C(=O)O/N=C/c2c(N3CCOCC3)n(C)c3ccccc23)c1
EC50: 799 nM

CCn1c(=O)n(CC(=O)N2CCN(c3ccccc3F)CC2)c(=O)c2ccccc21
EC50: > 16000 nM (inactive)

CCOC(=O)N1C(=O)C2(CCCCC2)N(c2ccccc2Cl)C1=S
EC50: 1990 nM

CNC(=S)N1N=C(c2ccccc2)CC1c1ccccc1Cl (configuration not stated)
EC50: > 16000 nM (inactive)

CCN(c1ccccc1)S(=O)(=O)c1ccc(Cl)c(NC(=O)CN2C(=O)NC3(CCCC3)C2=O)c1
EC50: > 15000 nM (inactive)

Cc1ccc(O)c(-c2cc(-c3cccc(Br)c3)n[nH]2)c1
EC50: 6710 nM

COc1ccc(-[n+]2c(-c3ccccc3)cc(-c3ccc(C)cc3)cc2-c2ccccc2)cc1
EC50: > 15000 nM (inactive)

CCNC(=S)NNC(=O)c1cc(-c2cc(C)ccc2C)nc2ccccc12
EC50: 134 nM

O=C(O)c1cccc(CSc2nc(-c3ccccc3)cc(C(F)(F)F)n2)c1
EC50: 6820 nM

CCC(=O)NC(c1cccs1)c1cc(Cl)c2cccnc2c1O (configuration not stated)
EC50: 372 nM

Cc1ccc(-c2cc(-c3ccc(C)cc3)[n+](C)o2)cc1
EC50: > 16000 nM (inactive)

Nc1ncnc2c1ncn2[C@@H]1O[C@H](CO)C[C@H]1O
EC50: > 15000 nM (inactive)

CC1CCC(C(C)C)C(OC(=O)Cn2c(-c3ccc(Br)cc3)[n+](C)c3ccccc32)C1 (configuration not stated)
EC50: 534 nM and 752 nM

Cc1ccc(C(=O)c2coc3c2C(=O)C(=O)c2ccccc2-3)cc1
EC50: 146 nM

CCCc1cc(=O)[nH]c(SCC(=O)Nc2ccc(Br)cc2Br)n1
EC50: 2590 nM

O=C(c1ccco1)N1CCN(c2ncnc3c(-c4ccccc4)nsc23)CC1
EC50: 1260 nM

COC(=O)c1c(-c2cccs2)csc1NC(=O)c1cccnc1
EC50: 1290 nM

O=C(NC(=S)NNC(=O)[C@H]1C[C@@H]1c1ccccc1)c1cccc(F)c1
EC50: 2560 nM

CON/C=C(\C=Nc1ccc(Cl)cc1Cl)c1ncc(C(F)(F)F)cc1Cl
EC50: > 16000 nM (inactive)

CCN(CC)c1ccc(/C=N/NC(=O)c2cccc(S(=O)(=O)N3CCOCC3)c2)c(O)c1
EC50: 513 nM

CCCn1nnnc1NC(=O)c1ccc2ccccc2c1
EC50: 1660 nM

Cc1cc(C)n(-c2nc(SCCN(C)C)c3c4c(sc3n2)CCCC4)n1
EC50: 6430 nM

O=C(N/N=C/c1ccc(O)c(O)c1O)/C(=C/c1ccc([N+](=O)[O-])cc1)NC(=O)c1ccccc1
EC50: 807 nM

COc1ccc(/C=N/NC(=O)c2cc(O)c(O)c(O)c2)cc1Cn1cc([N+](=O)[O-])cn1
EC50: 1440 nM

O=[N+]([O-])c1cc(Br)c(O)c(/C=N/Nc2nnnn2-c2cccc3ccccc23)c1
EC50: > 15000 nM (inactive)

Cc1ccc2c(c1)c(/C=C/c1cc[n+](C)cc1)c(C)n2C
EC50: > 16000 nM (inactive)

O=C(Cc1nc2ccccc2s1)c1ccc(O)cc1O
EC50: 2860 nM

CCc1ccccc1NC(=S)NNC(=O)c1ccccc1Cl
EC50: 823 nM

Oc1[nH]c2ccc(Br)cc2c1N=NC(=S)N1CCOCC1
EC50: 3100 nM

CN1CCN(C(c2cccnc2)c2ccc3cccnc3c2O)CC1 (configuration not stated)
EC50: > 16000 nM (inactive)

CC1(C)CC(N=Cc2c(O)n(Cc3ccc4c(c3)OCO4)c(=O)c3ccccc23)CC(C)(C)N1
EC50: 3850 nM

C=CCn1c(COc2ccc(F)cc2)nnc1SCC(=O)Nc1cccc(S(N)(=O)=O)c1
EC50: > 16000 nM (inactive)

CSc1ncc(Cl)c(C(=O)C(C#N)c2nc3c(C)cc(C)cc3c(=O)[nH]2)n1 (configuration not stated)
EC50: > 16000 nM (inactive)

O=[N+]([O-])CC(c1ccccc1)P(=O)(c1ccccc1)c1ccccc1 (configuration not stated)
EC50: 1890 nM

Oc1ccc(CN2CCCCC2)c2cccnc12
EC50: 16100 nM

CN1/C(=C/C(=O)c2cccs2)Sc2ccccc21
EC50: 841 nM

Cc1nn(C)c(C)c1/C=C/C(=O)c1ccc(Cl)cc1Cl
EC50: 1640 nM

O=C(O)CCCCCN1C(=O)/C(=C\c2ccncc2)SC1=S
EC50: 898 nM

CCC(C)OC(=O)C[N+](C)(C)CCOC1CC2CCC1(C)C2(C)C (configuration not stated)
EC50: 6590 nM

Cc1nnc(NC(=O)CSc2ncnc3c2cnn3-c2ccccc2C)s1
EC50: 446 nM

CC(=O)c1ccc(NC(=O)Nc2cccc3ccccc23)cc1
EC50: > 15000 nM (inactive)

CCc1cc(C(=O)NC2CCCc3c2cnn3-c2cccc(C)c2C)n(C)n1 (configuration not stated)
EC50: 232 nM

O=[N+]([O-])c1c(C(Cl)Cl)nn(-c2ccc(Cl)cc2)c1N1CCCCC1
EC50: 441 nM

CCCn1c(Nc2nc3ccccc3n2C)nc2ccccc21
EC50: 1170 nM

CC(C)c1noc2ncc(C(=O)c3cc(Cl)cc(Cl)c3O)cc12
EC50: 2910 nM

C=C(C)c1cccc(C(C)(C)NC(=O)Nc2ccc(C(N)=O)cc2)c1
EC50: > 15000 nM (inactive)

COc1ccc(-c2csc(N(CC3CCCO3)C(=O)c3ccco3)n2)cc1 (configuration not stated)
EC50: > 16000 nM (inactive)

Cc1ccc(C(C)C)c(OCc2ccc(C(=O)N/N=C/c3cccc(O)c3O)cc2)c1
EC50: 788 nM

CCOC(=O)C1CCN(Cc2ccc(O)c3ncccc23)CC1
EC50: > 15000 nM (inactive)

Cc1ccc2occ(/C=N/NC(=O)c3ccccc3O)c(=O)c2c1
EC50: 15100 nM

O=C(CC(=O)c1cccc([N+](=O)[O-])c1)Nc1ccccc1Cl
EC50: 954 nM

O=C(Nc1nnc(C2COc3ccccc3O2)o1)c1ccc(F)cc1 (configuration not stated)
EC50: 910 nM
